# Measurements: patent US11472781B2, “2-aminoaryl-5-aryloxazole analogs for the treatment of neurodegenerative diseases” (Southern Research Institute, priority 2018, dated 2022)
# Read-outs that look alike come from different tables or passages of the source.
# Tested on: NF-κB
# Experiment: High throughput assay for NF-κB reporter activity (luciferase) in stably transfected SH-SY5Y cells
# Format: cell-based, human
# Details: for maximal fold induction: 24 h, read-out: Emax; for EC50: 24 hr
# Method: SH-SY5Y human neuroblastoma cell line was obtained from the American Tissue Culture collection (ATCC). A commercially available expression vector containing the NF-kB promoter enhancer region driving the firefly luciferase gene expression and a second plasmid containing the gene conferring resistance to blasticidin were used in a dual transfection approach to obtain a stable cell line. […] Luciferase activity was measured as a reporter of NF-kB activation using the Bright-Glo Luciferase assay kit (Cat. No. E2620, Promega, Madison, Wis.) according to the manufacturer's instructions. Cell viability was measured using the CellTiter-Glo Luminescent Cell Viability assay kit (Cat. No. G7572, Promega, Madison, Wis.) according to the manufacturer's instructions. Briefly, cells were equilibrated at room temperature for 30 min prior to the addition of Bright-Glo to the white opaque plates or CellTiter-Glo to the black clear bottom plates. A volume of assay buffer equal to the volume of cell media was added to each well and incubated for five min to allow complete cell lysis. All procedures were performed in the dark.
Structure (SMILES),maximal fold induction (Homo sapiens),"EC50 (Homo sapiens, read-out: EC50)",EC50
O=C(O)c1cccc(-c2cnc(Nc3c(F)cc(F)cc3F)o2)c1 [Compound 48],14.1,> 10000 nM,
O=C(O)c1ccc(-c2cnc(Nc3cccc(F)c3)o2)cc1 [Compound 50],6.15,,Inactive
O=C(O)c1ccc(-c2cnc(Nc3ccc(F)cc3)o2)cc1 [Compound 51],4.22,,Inactive
O=C(O)c1ccc(-c2cnc(Nc3c(F)cccc3F)o2)cc1 [Compound 53],,,Inactive
O=C(O)c1ccccc1-c1cnc(Nc2ccccc2F)o1 [Compound 54],5.37,,Inactive
O=C(O)c1ccccc1-c1cnc(Nc2cc(F)ccc2F)o1 [Compound 55],4.46,,Inactive
COC(=O)c1cccc(-c2cnc(Nc3c(F)cc(F)cc3F)o2)c1 [Compound 64],12.3,> 10000 nM,
COC(=O)c1ccc(-c2cnc(Nc3ccc(F)cc3)o2)cc1 [Compound 67],,,Inactive
COC(=O)c1ccc(-c2cnc(Nc3ccc(F)cc3F)o2)cc1 [Compound 68],4.41,> 10000 nM,
COC(=O)c1ccc(-c2cnc(Nc3cccc(F)c3F)o2)cc1 [Compound 71],7.24,,Inactive
COC(=O)c1ccc(-c2cnc(Nc3c(F)cc(F)cc3F)o2)cc1 [Compound 72],3.97,,Inactive
COC(=O)c1ccccc1-c1cnc(Nc2ccccc2F)o1 [Compound 73],2.37,,Inactive
COC(=O)c1ccccc1-c1cnc(Nc2cccc(F)c2)o1 [Compound 74],2.37,,Inactive
COC(=O)c1ccccc1-c1cnc(Nc2ccc(F)cc2)o1 [Compound 75],2.97,,Inactive
COC(=O)c1ccccc1-c1cnc(Nc2ccc(F)cc2F)o1 [Compound 76],4.45,,Inactive
COC(=O)c1ccccc1-c1cnc(Nc2cc(F)ccc2F)o1 [Compound 77],2.29,,Inactive
COC(=O)c1ccccc1-c1cnc(Nc2c(F)cccc2F)o1 [Compound 78],4.36,,Inactive
"Fc1ccccc1Nc1nc(-c2ccccn2)no1 [Compound 81, N-(2-fluorophenyl)-3-(pyridin-2-yl)-1,2,4-oxadiazol-5-amine]",14.4,2510 nM,
CC(C)N(c1ccc(F)cc1)c1ncc(-c2cccc(C(=O)O)c2)o1 [Compound 83],4.5,,Inactive
O=C(O)c1cccc(-c2cnc(Nc3ccc(Cl)cc3)o2)c1 [Compound 84],11.3,750 nM,
COC(=O)c1cccc(-c2cnc(Nc3ccc(Cl)cc3)o2)c1 [Compound 85],5.77,,Inactive
COC(=O)c1cccc(-c2cnc(N(c3ccc(F)cc3)C(C)C)o2)c1 [Compound 86],2.2,,Inactive
COC(=O)c1cccc(-c2cnc(Nc3ccc(C(F)(F)F)cc3)o2)c1 [Compound 87],5.29,,Inactive
COC(=O)c1cccc(-c2cnc(Nc3ccc(C#N)cc3)o2)c1 [Compound 88],3.49,,Inactive
CCCN(c1ccc(F)cc1)c1ncc(-c2cccc(C(=O)OC)c2)o1 [Compound 89],3,,Inactive
COC(=O)c1cccc(-c2cnc(Nc3ccc(OC)cc3)o2)c1 [Compound 90],2.47,,Inactive
Fc1ccc(Nc2ncc(-c3cccc(-c4nnn[nH]4)c3)o2)cc1 [Compound 93],2.59,,Inactive
NCc1cccc(-c2cnc(Nc3ccccc3F)o2)c1 [Compound 96],5.14,,Inactive
Nc1cccc(-c2cnc(Nc3ccccc3F)o2)c1 [Compound 97],0.55,,Inactive
Cc1noc(-c2cccc(-c3cnc(N(C)c4ccc(F)cc4)o3)c2)n1 [Compound 98],3.2,,Inactive
